# Assay results as given in PMC5578959, “Selective LRRK2 kinase inhibition reduces phosphorylation of endogenous Rab10 and Rab12 in human peripheral mononuclear blood cells” (Scientific Reports, 2017).
# Key:
# Rab10-pThr73 = assay: Western Blot, cultured immune stimulated human PBMCs; type: cell-based; details: 100 nM
# Procedure: PBMC were isolated from fresh blood collected within a maximal time of 4 hours after blood collection. Leucosep tubes (Greiner 227290) was added 15 ml Ficoll (GE Healthcare 17-440-03) and spun 30 s at 1000 × g. Blood was diluted 1:1 using D-PBS 1X (Gibco 14190), transfered to the Leucosep and centrifuged at 800 g for 15 min without brake. The upper layer corresponding to the diluted plasma was removed and the PBMC layer collected using a pipette or by pouring into a clean BD Falcon 50 ml tube. Cells were re-suspended and washed four times with 10 ml of D-PBS 1X (Gibco 14190) followed by centrifugation at 250 g for 10 min with brake at room temperature. The supernatant was discarded and the cells re-suspended in Complete medium equilibrated to 37 °C. The number of dead and living cells were counted on a Nucleocounter and used to calculate percent viability.
# Freshly isolated PBMCs were plated at a density ranging from 7–20 × 10^6 cells in 10 cm petri dishes (Costar 3262) in RPMI-1640 media (Gibco 61870–010) supplemented with 10% non-heat inactivated FBS, 5 ml Antimycotic (Sigma cat:5965) with or without an immune stimulation cocktail consisting of 400 nM phorbol 12-myristate 13-acetate (PMA) and 100 ng/ml interferon-γ (INF-γ). After 48 hrs in culture the cultures were added a fifth of the volume media containing 5x the final concentration of the respective LRRK2 inhibitor with or without PMA and interferon-γ. […] After 72 hrs in culture the PBMC’s were harvested, pelleted and fresh-frozen on dry-ice. An aliquot of PBMCs was used for assessment of PBMC yield and viability.
# Cell pellets were resuspended and solubilized in 100 µL lysis buffer (50 mM Tris hydrochloride, 1 mM magnesium chloride, 1% Triton, 0.1% sodium dodecyl sulfate (SDS), pH 8.0) on ice for 20 minutes and then centrifuged at 20,000 g for 30 minutes at 4 °C. The solubilized crude cell lysate was size mobility separated by SDS-polyacrylamide gel electrophoresis (SDS-PAGE). LRRK2 was separated on a 3–8% Tris-Acetate gel (NuPAGE® Tris-Acetate Mini Gels, Life Technologies, Paisley, UK) and Rab10 and Rab12 were separated using a NuPAGE® Novex 4–12% Bis-Tris Gel (Invitrogen, California, US). An amount of 10 µg total protein was loaded in each well. Proteins were transferred to immobilon-FL PVDF membranes (Millipore, Billerica, US). […] The proteins were visually detected by infrared imaging using Odyssey CLx (LI-COR, Nebraska, US). Membranes were scanned and band intensities were quantified using the Image Studio version 3.1.4 (LI-COR, Nebraska).
# ARAF = tested on: T1, ARAF; assay: KiNativ profiling in human PBMCs; type: binding; details: Lys2
# T1 construct: purchased ActivX Technologies (KiNativ)
# Summary of the method: (§1)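 Steps: expose living PBMCs to compound (0.1 µM or 1 µM); perform KiNativ-based kinase profiling.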
# BARK1 = tested on: T2, BARK1; assay: KiNativ profiling in human PBMCs; type: binding; details: Lys2
# T2 construct: purchased ActivX Technologies (KiNativ)
# Summary of the method: as §1
# [1] = tested on: CaMK2a,CaMK2b,CaMK2d,CaMK2g; assay: KiNativ profiling in human PBMCs; type: binding; details: Lys2
# Summary of the method: as §1
# Erk2 = tested on: T3, Erk2; assay: KiNativ profiling in human PBMCs; type: binding; details: Lys2
# T3 construct: purchased ActivX Technologies (KiNativ)
# Summary of the method: as §1
# FES = tested on: T4, FES; assay: KiNativ profiling in human PBMCs; type: binding; details: Lys1
# T4 construct: purchased ActivX Technologies (KiNativ)
# Summary of the method: as §1
# GCK = tested on: T5, GCK; assay: KiNativ profiling in human PBMCs; type: binding
# T5 construct: purchased ActivX Technologies (KiNativ)
# Summary of the method: as §1
# GPRK6 = tested on: T6, GPRK6; assay: KiNativ profiling in human PBMCs; type: binding; details: Lys2
# T6 construct: purchased ActivX Technologies (KiNativ)
# Summary of the method: as §1
# JAK3 domain2 = tested on: T7, JAK3 domain2; assay: KiNativ profiling in human PBMCs; type: binding
# T7 construct: JAK3 domain2; purchased ActivX Technologies (KiNativ)
# Summary of the method: as §1
# KSR1,KSR2 = assay: KiNativ profiling in human PBMCs; type: binding; details: Activation Loop
# Summary of the method: as §1
# LATS1 = tested on: T8, LATS1; assay: KiNativ profiling in human PBMCs; type: binding
# T8 construct: purchased ActivX Technologies (KiNativ)
# Summary of the method: as §1
# MAP2K1,MAP2K2 = assay: KiNativ profiling in human PBMCs; type: binding; details: Lys2
# Summary of the method: as §1
# MAP3K2,MAP3K3 = assay: KiNativ profiling in human PBMCs; type: binding; details: Lys2
# Summary of the method: as §1
# NEK9 = tested on: T9, NEK9; assay: KiNativ profiling in human PBMCs; type: binding
# T9 construct: purchased ActivX Technologies (KiNativ)
# Summary of the method: as §1
# RSKL1 domain1 = tested on: T10, RSKL1 domain1; assay: KiNativ profiling in human PBMCs; type: binding; details: for Inhibition: Protein Kinase Domain; for % Inhibition: ATP
# T10 construct: RSKL1 domain1; purchased ActivX Technologies (KiNativ)
# Summary of the method: as §1
# SGK3 = tested on: T11, SGK3; assay: KiNativ profiling in human PBMCs; type: binding
# T11 construct: purchased ActivX Technologies (KiNativ)
# Summary of the method: as §1
# eEF2K = tested on: T12, eEF2K; assay: KiNativ profiling in human PBMCs; type: binding; details: ATP
# T12 construct: purchased ActivX Technologies (KiNativ)
# Summary of the method: as §1
smiles,measurement,setting,value
Cc1cccc(-c2cc(Nc3ccn(C)n3)nc3[nH]cc(C#N)c23)c1 [Lu AF58786],inhibition of Rab10 phosphorylation (Rab10-pThr73/total Rab10),Rab10-pThr73; 1 hr,not at 1 hr
same,inhibition of Rab10 phosphorylation (Rab10-pThr73/total Rab10),Rab10-pThr73; 24 hrs,able to inhibit Rab10 phosphorylation at 24 hrs
same,Inhibition,ARAF; 0.1µM,-4.9%
same,Inhibition,ARAF; 1µM,-4.5%
same,Inhibition,BARK1; 0.1µM,12.1%
same,Inhibition,BARK1; 1µM,6.3%
same,Inhibition,[1]; 0.1µM,-12.1%
same,Inhibition,[1]; 1µM,-1.0%
same,Inhibition,Erk2; 0.1µM,2.4%
same,Inhibition,Erk2; 1µM,1.7%
same,Inhibition,FES; 0.1µM,13.9%
same,Inhibition,FES; 1µM,9.3%
same,Inhibition,"GCK; 0.1µM, Lys1",14.1%
same,Inhibition,"GCK; 0.1µM, Lys2",16.9%
same,Inhibition,"GCK; 1µM, Lys1",5.5%
same,Inhibition,"GCK; 1µM, Lys2",-3.1%
same,Inhibition,GPRK6; 0.1µM,-65.0%
same,Inhibition,GPRK6; 1µM,-34.1%
same,Inhibition,"JAK3 domain2; 0.1µM, Activation Loop",4.0%
same,Inhibition,"JAK3 domain2; 0.1µM, Lys1",12.9%
same,Inhibition,"JAK3 domain2; 1µM, Activation Loop",52.9%
same,Inhibition,"JAK3 domain2; 1µM, Lys1",20.6%
same,Inhibition,"KSR1,KSR2; 0.1µM",12.4%
same,Inhibition,"KSR1,KSR2; 1µM",-3.6%
same,Inhibition,"LATS1; 0.1µM, Lys1",5.7%
same,Inhibition,"LATS1; 0.1µM, Lys2",-2.7%
same,Inhibition,"LATS1; 1µM, Lys1",11.6%
same,Inhibition,"MAP2K1,MAP2K2; 0.1 µM, DVKPSNILVNSR",4.0%
same,Inhibition,"MAP2K1,MAP2K2; 1 µM, DVKPSNILVNSR",1.8%
same,Inhibition,"MAP2K1,MAP2K2; 1 µM, IMHRDVKPSNILVNSR",14.1%
same,Inhibition,"MAP3K2,MAP3K3; 0.1µM",6.3%
same,Inhibition,"MAP3K2,MAP3K3; 1µM",0.325%
same,Inhibition,"NEK9; 0.1µM, Lys1",8.4%
same,Inhibition,"NEK9; 0.1µM, Lys2",12.6%
same,Inhibition,"NEK9; 1µM, Lys1",-0.0314%
same,Inhibition,"NEK9; 1µM, Lys2",-3.7%
same,Inhibition,RSKL1 domain1; 0.1µM,15.2%
same,Inhibition,RSKL1 domain1; 1µM,1.9%
same,Inhibition,"SGK3; 0.1µM, Lys2",-8.9%
same,Inhibition,"SGK3; 1µM, Lys2",13.9%
same,Inhibition,eEF2K; 0.1µM,12.2%
same,Inhibition,eEF2K; 1µM,6.3%
Cn1cc(-c2c[nH]c3ncnc(N4CCOCC4)c23)cc1C#N [PFE-360],inhibition of Rab10 phosphorylation (Rab10-pThr73/total Rab10),Rab10-pThr73; 1 hr,not at 1 hr
same,inhibition of Rab10 phosphorylation (Rab10-pThr73/total Rab10),Rab10-pThr73; 24 hrs,able to inhibit Rab10 phosphorylation at 24 hrs
same,% Inhibition,ARAF; 0.1µM,7.6%
same,% Inhibition,ARAF; 1µM,2.5%
same,% Inhibition,BARK1; 0.1µM,-4.8%
same,% Inhibition,BARK1; 1µM,-29.7%
same,% Inhibition,[1]; 0.1µM,6.1%
same,% Inhibition,[1]; 1µM,1.2%
same,% Inhibition,Erk2; 0.1µM,9.1%
same,% Inhibition,Erk2; 1µM,5.3%
same,% Inhibition,FES; 0.1µM,-0.3%
same,% Inhibition,FES; 1µM,-5.7%
same,% Inhibition,"GCK; 0.1µM, Lys1",7.4%
same,% Inhibition,"GCK; 0.1µM, Lys2",6.5%
same,% Inhibition,"GCK; 1µM, Lys1",11.4%
same,% Inhibition,"GCK; 1µM, Lys2",-7.7%
same,% Inhibition,GPRK6; 0.1µM,5.7%
same,% Inhibition,GPRK6; 1µM,0.4%
same,% Inhibition,"JAK3 domain2; 0.1µM, Activation Loop",6.4%
same,% Inhibition,"JAK3 domain2; 0.1µM, Lys1",2.6%
same,% Inhibition,"JAK3 domain2; 1µM, Activation Loop",7.7%
same,% Inhibition,"JAK3 domain2; 1µM, Lys1",-7.6%
same,% Inhibition,"KSR1,KSR2; 0.1µM",19.7%
same,% Inhibition,"KSR1,KSR2; 1µM",10.8%
same,% Inhibition,"LATS1; 0.1µM, Lys1",5.2%
same,% Inhibition,"LATS1; 0.1µM, Lys2",3.2%
same,% Inhibition,"LATS1; 1µM, Lys1",0.9%
same,% Inhibition,"LATS1; 1µM, Lys2",0.1%
same,% Inhibition,"MAP2K1,MAP2K2; 0.1µM",13.4%
same,% Inhibition,"MAP2K1,MAP2K2; 1µM",12.9%
same,% Inhibition,"MAP3K2,MAP3K3; 0.1µM",-2.6%
same,% Inhibition,"MAP3K2,MAP3K3; 1µM",-12.9%
same,% Inhibition,"NEK9; 0.1µM, Lys1",-10.6%
same,% Inhibition,"NEK9; 0.1µM, Lys2",8.9%
same,% Inhibition,"NEK9; 1µM, Lys1",-19.6%
same,% Inhibition,"NEK9; 1µM, Lys2",5.7%
same,% Inhibition,RSKL1 domain1; 0.1µM,-38%
same,% Inhibition,RSKL1 domain1; 1µM,7.3%
same,% Inhibition,"SGK3; 0.1µM, Lys1",8.9%
same,% Inhibition,"SGK3; 0.1µM, Lys2",-21.8%
same,% Inhibition,"SGK3; 1µM, Lys1",5.1%
same,% Inhibition,"SGK3; 1µM, Lys2",-10.5%
same,% Inhibition,eEF2K; 0.1µM,15.7%
same,% Inhibition,eEF2K; 1µM,-1.8%
